In patent US20230203060A1 (GENFLEET THERAPEUTICS (SHANGHAI) INC., priority 2020, published 2023) one finds IC50 data, which are given here for nine compounds.

For assay [1], the system named is phosphorylated ERK downstream of KRAS G12C in MIA PaCa2 cells. The experiment in a line: Cell p-ERK detection experiment (HTRF) in MIA PaCa2. Conditions: Homo sapiens, MIA PaCa-2, 2 h, MIA PaCa2 cells, 2 hours with compound, Advance ERK phospho-T202/Y204 HTRF kit; read-out: p-ERK IC50. It counts as cell-based, human. A digest of the protocol: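 KRAS G12C-mutant MIA PaCa2 cells (2.5E4 per well, overnight) exposed 2 h to a 3.16-fold compound dilution series at 0.1% DMSO. Lysates probed 4 h with HTRF antibodies to ERK phospho-T202/Y204; inhibition versus DMSO control and blank, IC50 by four-parameter fit.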
A general note: In TR-FRET formats the signal depends on donor and acceptor labels being close together.

Assay [2] has as its target T1, KRAS G12C (Homo sapiens, UniProt P01116, G12C).
T1 construct: purchased Reactionbiology
The experiment in a line: KRAS G12C NEA-HTRF experiment (SOS1-catalyzed displacement of GDP by GTP). Format: biochemical. Put shortly:
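His-tagged KRAS G12C preloaded with DY647-GDP was preincubated 15 min at 20 °C with compound, then exchanged with SOS1 (0.2 μM working solution) and GTP (200 μM working solution) for 2 h at 20 °C in the dark. HTRF 665/615 nm ratio with anti-His-Tb was normalised to T0 and no-compound controls; IC50 by four-parameter fit.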

T1 sequence (P01116 1-188 isoform P01116-2 G12C): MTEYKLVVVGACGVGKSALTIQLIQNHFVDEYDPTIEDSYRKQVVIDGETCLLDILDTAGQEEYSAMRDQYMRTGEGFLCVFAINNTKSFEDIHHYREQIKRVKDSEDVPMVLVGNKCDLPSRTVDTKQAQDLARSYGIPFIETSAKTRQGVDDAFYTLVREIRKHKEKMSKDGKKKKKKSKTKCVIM

By IC50 is commonly meant the concentration that inhibits the measured activity by half. As to `C=CC(=O)N1CCN2C(=O)c3c(N4CC[C@@H](OC)[C@@H]4C)nc(-c4c(O)cccc4F)c(Cl)c3OC[C@H]2C1` [Z338-1, (6aR)-8-acryloyl-4-chloro-3-(2-fluoro-6-hydroxyphenyl)-1-((2S,3R)-3-methoxy-2-methylpyrrolidin-1-yl)-6,6a,7,8,9,10-hexahydro-12H-pyrazino[2,1-c]pyrido[3,4-f][1,4]oxazepin-12-one], the IC50 is 46 nM in assay [1] and 39 nM in assay [2].
On to `C=CC(=O)N1CCN2C(=O)c3c(N4CCN(C)C[C@@H]4C)nc(-c4c(F)ccc(Cl)c4O)c(Cl)c3OC[C@H]2C1` [Z342, (6aR)-8-acryloyl-4-chloro-3-(3-chloro-6-fluoro-2-hydroxyphenyl)-1-((S)-2,4-dimethylpiperazin-1-yl)-6,6a,7,8,9,10-hexahydro-12H-pyrazino[2,1-c]pyrido[3,4-f][1,4]oxazepin-12-one], for which the results for the IC50 in assay [1] and in assay [2] were 84 nM and 74 nM, respectively.
`C=CC(=O)N1CCN2C(=O)c3c(N4CCN(C)C[C@@H]4C)nc(-c4c(O)ccc(Cl)c4F)c(Cl)c3OC[C@H]2C1` [Z343, (6aR)-8-acryloyl-4-chloro-3-(3-chloro-2-fluoro-6-hydroxyphenyl)-1-((S)-2,4-dimethylpiperazin-1-yl)-6,6a,7,8,9,10-hexahydro-12H-pyrazino[2,1-c]pyrido[3,4-f][1,4]oxazepin-12-one]: the IC50 in assay [1] amounted to 119 nM; in assay [2] it was 101 nM.
`C=CC(=O)N1CCN2C(=O)c3c(N4CC(N5CCOCC5)CC4(C)C)nc(-c4c(O)cccc4F)c(Cl)c3OC[C@H]2C1` (stereo partly drawn) [Z344, (6aR)-8-acryloyl-4-chloro-1-((2,2-dimethyl-4-morpholinopyrrolidin-1-yl))-3-(2-fluoro-6-hydroxyphenyl)-6,6a,7,8,9,10-hexahydro-12H-pyrazino[2,1-c]pyrido[3,4-f][1,4]oxazepin-12-one]: the concentration for half-maximal inhibition (IC50) in assay [1] and in assay [2] was 10 nM throughout.
Regarding `C=CC(=O)N1CCN2C(=O)c3c(N4CC[C@H](OC)[C@@H]4C)nc(-c4c(O)cccc4F)c(Cl)c3OC[C@H]2C1` [Z347-1, (6aR)-8-acryloyl-4-chloro-3-(2-fluoro-6-hydroxyphenyl)-1-((2S,3S)-3-methoxy-2-methylpyrrolidin-1-yl)-6,6a,7,8,9,10-hexahydro-12H-pyrazino[2,1-c]pyrido[3,4-f][1,4]oxazepin-12-one], the IC50 in assay [1] is 11 nM; in assay [2], 12 nM.
For `C=CC(=O)N1CCN2C(=O)c3c(N4CCN(C)C[C@@H]4C)nc(-c4c(F)ccc(F)c4O)c(Cl)c3OC[C@H]2C1` [Z356, (6aR)-8-acryloyl-4-chloro-3-(3,6-difluoro-2-hydroxyphenyl)-1-((S)-2,4-dimethylpiperazin-1-yl)-6,6a,7,8,9,10-hexahydro-12H-pyrazino[2,1-c]pyrido[3,4-f][1,4]oxazepin-12-one], in that order: 253 nM and 161 nM.
For `C=CC(=O)N1CCN2C(=O)c3c(N4C[C@@H](N(C)CCOC)C[C@@H]4C)nc(-c4c(O)cccc4F)c(Cl)c3OC[C@H]2C1` [Z358-1], in that order: 23 nM and 26.4 nM.
In the case of `C=CC(=O)N1CCN2C(=O)c3c(N4C[C@@H](OC)C[C@@H]4C)nc(-c4c(O)cccc4F)c(F)c3OC[C@H]2C1` [Z359-1, (6aR)-8-actyloyl-4-fluoro-3-(2-fluoro-6-hydroxyphenyl)-1-((2S,4S)-4-methoxy-2-methylpyrrolidin-1-yl)-6,6a,7,8,9,10-hexahydro-12H-pyrazino[2,1-c]pyrido[3,4-f][1,4]oxazepin-12-one], the results for the IC50 in assay [1] and in assay [2] were 93 nM and 83.8 nM, respectively.
With `C=CC(=O)N1CCN2C(=O)c3c(N4CCN(C)C(C)C4C)nc(-c4c(O)cccc4F)c(Cl)c3OC[C@H]2C1` (stereo partly drawn) [Z369, (6aR)-8-acryloyl-4-chloro-3-(2-fluoro-6-hydroxyphenyl)-1-(2,3,4-trimethylpiperazin-1-yl)-6,6a,7,8,9,10-hexahydro-12H-pyrazino[2,1-c]pyrido[3,4-f][1,4]oxazepin-12-one], the IC50 in assay [1] was found to be 29 nM; in assay [2], 68.6 nM.
